The record followed here is ChEMBL document CHEMBL2203211, “Isocytosine-based inhibitors of xanthine oxidase: design, synthesis, SAR, PK and in vivo efficacy in rat model of hyperuricemia” (Bioorg Med Chem Lett, 2012).

For orientation: half-life means the time in which the quantity being followed falls by half. Usually AUC(0-t) stands for the area under the concentration-time curve up to a stated or last time point. Usually Tmax stands for the time from dosing to the highest level. For orientation: Cmax means the maximum level reached in the sampled fluid or tissue. One may read the AUC(0-inf) as total exposure, with the tail of the curve extrapolated. The IC50 is the midpoint of a concentration-inhibition curve. The term clearance denotes a measure of how efficiently the substance is removed, as volume per time. As usually defined, the Vd is a proportionality between amount in the body and measured concentration, not a real space.

A short description of data set [1]: Half life in rat at 100 mg/kg, po. Format: ADME, organism-based. Also noted: dose 100 mg/kg, route oral. The conditions noted are these: in vivo.
A short description of data set [2]: Half life in rat at 50 mg/kg, ip. Also on record: dose 50 mg/kg, route intraperitoneal. The conditions noted are these: in vivo. Format: ADME, organism-based.
Data set [3] in a line: AUClast in rat at 50 mg/kg, ip. The conditions noted are these: plasma. The data set is classed as ADME, organism-based. Also noted: time 0 - last, dose 50 mg/kg, route intraperitoneal.
Data set [4] is described as follows: Tmax in rat at 100 mg/kg, po. The data set is classed as ADME, organism-based. The conditions noted are these: in vivo. Also noted: dose 100 mg/kg, route oral.
A short description of data set [5]: Cmax in rat at 50 mg/kg, ip. The data set is classed as ADME, organism-based. The conditions noted are these: in vivo. Also noted: dose 50 mg/kg, route intraperitoneal.
Data set [6] can be described thus: AUC (0 to infinity) in rat at 50 mg/kg, ip. Format: ADME, organism-based. To be noted: plasma. Also on record: time infinity, dose 50 mg/kg, route intraperitoneal.
A short description of data set [7]: AUClast in rat at 100 mg/kg, po. Format: ADME, organism-based. Also on record: time 0 - last, dose 100 mg/kg, route oral. To be noted: plasma.
Data set [8] can be described thus: Cmax in rat at 100 mg/kg, po. To be noted: in vivo. Also on record: dose 100 mg/kg, route oral. Format: ADME, organism-based.
Data set [9] in a line: Tmax in rat at 50 mg/kg, ip. Format: ADME, organism-based. Also on record: dose 50 mg/kg, route intraperitoneal. The conditions noted are these: in vivo.
Data set [10] in a line: AUC (0 to infinity) in rat at 100 mg/kg, po. Format: ADME, organism-based. Also on record: time infinity, dose 100 mg/kg, route oral. The conditions noted are these: plasma.
Data set [11] concerns Rattus norvegicus. The experiment in a line: Antihyperuricemic activity in fasted rat assessed as reduction in potassium oxonate-induced uric acid level in serum at 100 mg/kg, ip administered 1 hr post potassium oxonate-challenge relative to vehicle-treated control. Also on record: scale not given: the % may be the effect or the level left. Format: functional. The conditions noted are these: route intraperitoneal.

For data set [12], the system named is Rattus norvegicus. In words: Antihyperuricemic activity in fasted rat assessed as reduction in potassium oxonate-induced uric acid level in serum at 10 mg/kg, po administered 1 hr post potassium oxonate-challenge relative to vehicle-treated control. The data set is classed as functional. Also noted: scale not given: the % may be the effect or the level left.

Data set [13] relates to Rattus norvegicus. In words: Antihyperuricemic activity in fasted rat assessed as reduction in potassium oxonate-induced uric acid level in serum at 200 mg/kg, po administered 1 hr post potassium oxonate-challenge relative to vehicle-treated control. Also noted: dose 200 mg/kg. The data set is classed as functional, organism-based.
Data set [14] has as its target Xanthine dehydrogenase/oxidase (Homo sapiens, UniProt P47989).
Description: Inhibition of xanthine oxidase using xanthine as substrate at 30 mins by spectrophotometric analysis
The subject of data set [15] is Rattus norvegicus. In words: Antihyperuricemic activity in fasted rat assessed as reduction in potassium oxonate-induced uric acid level in serum at 50 mg/kg, ip administered 1 hr post potassium oxonate-challenge relative to vehicle-treated control. Also on record: scale not given: the % may be the effect or the level left. To be noted: route intraperitoneal. Format: functional.

The nature of data set [16]: Clearance in rat at 2 mg/kg, iv. The data set is classed as ADME, organism-based. Also noted: dose 2 mg/kg, route intravenous. The conditions noted are these: in vivo.
Data set [17] can be described thus: Tmax in rat at 2 mg/kg, iv. To be noted: in vivo. Also noted: dose 2 mg/kg, route intravenous. The data set is classed as ADME, organism-based.
Data set [18] can be described thus: Initial plasma concentration in rat at 2 mg/kg iv. Also noted: dose 2 mg/kg, route intravenous. Format: ADME, organism-based.
The nature of data set [19]: AUClast in rat at 2 mg/kg, iv. Format: ADME, organism-based. Also noted: time 0 - last, dose 2 mg/kg, route intravenous. To be noted: plasma.
A short description of data set [20]: AUC (0 to infinity) in rat at 2 mg/kg, iv. The data set is classed as ADME, organism-based. The conditions noted are these: plasma. Also noted: time infinity, dose 2 mg/kg, route intravenous.
A short description of data set [21]: Half life in rat at 2 mg/kg, iv. The conditions noted are these: in vivo. The data set is classed as ADME, organism-based. Also noted: dose 2 mg/kg, route intravenous.
A short description of data set [22]: Tmax in rat at 10 mg/kg, po. The data set is classed as ADME, organism-based. To be noted: in vivo. Also on record: dose 10 mg/kg, route oral.
The nature of data set [23]: Volume of distribution in rat at 2 mg/kg, iv. The data set is classed as ADME, organism-based. Also noted: dose 2 mg/kg, route intravenous. To be noted: in vivo.
Data set [24] in a line: AUC (0 to infinity) in rat at 10 mg/kg, po. Format: ADME, organism-based. Also on record: time infinity, dose 10 mg/kg, route oral. The conditions noted are these: plasma.
Data set [25] is described as follows: Cmax in rat at 10 mg/kg, po. Format: ADME, organism-based. Also on record: dose 10 mg/kg, route oral. To be noted: in vivo.
Data set [26] is described as follows: AUClast in rat at 10 mg/kg, po. To be noted: plasma. Also noted: time 0 - last, dose 10 mg/kg, route oral. Format: ADME, organism-based.
Data set [27] can be described thus: Half life in rat at 10 mg/kg, po. Format: ADME, organism-based. Also noted: dose 10 mg/kg, route oral. The conditions noted are these: in vivo.
Data set [28] is described as follows: Cmax in rat at 2 mg/kg, iv. The data set is classed as ADME, organism-based. Also on record: dose 2 mg/kg, route intravenous. The conditions noted are these: in vivo.
Data set [29] relates to Rattus norvegicus. The experiment in a line: Antihyperuricemic activity in fasted rat assessed as reduction in potassium oxonate-induced uric acid level in serum at 100 mg/kg, po administered 1 hr post potassium oxonate-challenge relative to allopurinol. The data set is classed as functional.
For data set [30], the system named is Rattus norvegicus. The experiment in a line: Antihyperuricemic activity in fasted rat assessed as reduction in potassium oxonate-induced uric acid level in serum at 100 mg/kg, po administered 1 hr post potassium oxonate-challenge relative to vehicle-treated control. Format: functional. Also on record: scale not given: the % may be the effect or the level left.

The source made the active and inactive calls. No cut-off for these calls is given here.

Xanthine dehydrogenase/oxidase, sequence (P47989 whole entry): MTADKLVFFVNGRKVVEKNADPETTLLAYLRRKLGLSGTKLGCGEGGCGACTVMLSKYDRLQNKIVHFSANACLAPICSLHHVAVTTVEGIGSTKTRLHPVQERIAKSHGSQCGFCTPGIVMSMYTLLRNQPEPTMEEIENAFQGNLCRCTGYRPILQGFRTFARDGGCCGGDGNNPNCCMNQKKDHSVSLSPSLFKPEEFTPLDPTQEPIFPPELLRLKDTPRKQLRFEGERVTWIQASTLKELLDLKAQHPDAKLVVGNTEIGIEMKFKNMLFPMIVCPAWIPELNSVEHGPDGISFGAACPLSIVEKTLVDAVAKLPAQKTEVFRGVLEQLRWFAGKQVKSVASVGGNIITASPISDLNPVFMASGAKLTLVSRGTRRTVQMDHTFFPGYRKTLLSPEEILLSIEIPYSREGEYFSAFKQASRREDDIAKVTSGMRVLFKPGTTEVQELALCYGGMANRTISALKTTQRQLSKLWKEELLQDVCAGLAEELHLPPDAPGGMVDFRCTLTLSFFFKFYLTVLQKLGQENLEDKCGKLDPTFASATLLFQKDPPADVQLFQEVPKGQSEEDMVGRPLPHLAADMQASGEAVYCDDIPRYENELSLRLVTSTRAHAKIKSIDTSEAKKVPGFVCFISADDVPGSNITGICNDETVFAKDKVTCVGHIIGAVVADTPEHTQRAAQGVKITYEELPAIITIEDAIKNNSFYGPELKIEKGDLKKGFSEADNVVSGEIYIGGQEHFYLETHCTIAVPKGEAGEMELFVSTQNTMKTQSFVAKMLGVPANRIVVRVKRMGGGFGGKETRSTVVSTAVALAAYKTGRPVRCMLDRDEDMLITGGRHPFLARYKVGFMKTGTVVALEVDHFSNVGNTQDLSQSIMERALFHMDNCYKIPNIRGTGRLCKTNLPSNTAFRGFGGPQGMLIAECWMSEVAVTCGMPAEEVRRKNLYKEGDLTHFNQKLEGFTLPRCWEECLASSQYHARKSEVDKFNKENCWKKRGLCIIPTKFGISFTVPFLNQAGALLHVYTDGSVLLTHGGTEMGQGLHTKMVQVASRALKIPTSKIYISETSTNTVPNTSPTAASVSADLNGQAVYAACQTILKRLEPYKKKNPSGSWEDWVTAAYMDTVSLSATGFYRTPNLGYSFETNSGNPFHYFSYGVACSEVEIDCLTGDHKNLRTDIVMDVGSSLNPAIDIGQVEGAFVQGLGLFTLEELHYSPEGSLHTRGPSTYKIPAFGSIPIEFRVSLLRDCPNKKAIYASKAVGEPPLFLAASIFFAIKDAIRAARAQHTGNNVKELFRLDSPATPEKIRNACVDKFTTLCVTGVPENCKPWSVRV

With `Nc1nc(-c2ccc(-c3ccccc3)cc2)cc(=O)[nH]1`, the half-life is 2.85 h in [1] and 5.52 h in data set [2]. The figures for the area under the curve AUC(0-t) in [3] and in [7] were 21900 ng·h/mL and 600 ng·h/mL, respectively. In addition, the time of peak concentration (Tmax) in [4] was 0.88 h; in data set [9], 3.33 h. Also, the figures for the Cmax in data set [5] and in data set [8] were 7.13 µM and 0.81 µM, respectively. Also, the AUC(0-inf) in data set [6] is 23100 ng·h/mL; in data set [10], 890 ng·h/mL.
On to `Oc1ncnc2[nH]ncc12` [ALLOPURINOL], for which the Activity is 177% in [11] and 130% in [12].
For `CC(C)COc1ccc(-c2cc(O)nc(N)n2)cc1C#N`, in [13], the outcome was inactive. Besides, the Activity in data set [11] was 124%.
In turn, `CC(C)COc1ccc(-c2cc(=O)[nH]c(N)n2)cc1N` had an IC50 in data set [14] of 6720 nM.
The same measure, in the same setting: for `CCCCOc1ccc(-c2cc(=O)[nH]c(N)n2)cc1` the value was 2100 nM.
Same read-out and setting: with `Nc1nc(O)cc(-c2ccc(Oc3ccccc3)cc2)n1` the figure was 2470 nM; with `CC(C)Sc1ccc(-c2cc(O)nc(N)n2)cc1`, 2440 nM.
For the molecule `COc1cc(-c2cc(O)nc(N)n2)ccc1OCC(C)C`, the half-life in data set [2] was 0.85 h. The AUC(0-t) in data set [3] was found to be 27600 ng·h/mL. The Activity in data set [15] is 55%. For the same molecule, the Cmax in [5] is 34.3 µM. Further, the AUC(0-inf) in data set [6] was 27700 ng·h/mL. In addition, in data set [9], the Tmax is 2 h. The same molecule came in with an IC50 in [14] of 950 nM.
In [14], `Nc1nc(O)cc(-c2ccc(N3CCOCC3)cc2)n1` had an IC50 of 16500 nM.
On the same count and under the same terms, with `CCCCSc1ccc(-c2cc(=O)[nH]c(N)n2)cc1` the figure was 1630 nM; with `CC(C)Cc1ccc(-c2cc(O)nc(N)n2)cc1`, 4950 nM.
For `CC(C)COc1ccc(-c2cc(=O)[nH]c(N)n2)cc1C#N`, in [16], the clearance was 71.3 mL/min/kg. The time to peak (Tmax) came to 1.8 min in [17] and 0.19 h in data set [22]. The C0 in data set [18] was determined as 1360 ng/mL. In addition, the AUC(0-t) was found to be 470 ng·h/mL in data set [19] and 200 ng·h/mL in data set [26]. Besides, the AUC(0-inf) in data set [20] was found to be 480 ng·h/mL; in data set [24], 310 ng·h/mL. Moreover, the half-life in data set [21] is 0.63 h; in [27] it was 11.4 h. The molecule further showed a Vd in [23] of 3.83 L/kg. Further, the Cmax in data set [25] worked out at 0.23 µM; in data set [28] it was 4.19 µM.
Regarding `Cc1nc(-c2ccc(OCC(C)C)c(C#N)c2)sc1C(=O)O` [FEBUXOSTAT], the Activity in [11] is on record as 181%; in data set [12], 180%. The IC50 in data set [14] was found to be 30 nM.
In data set [1], `CC(C)COc1ccc(-c2cc(O)nc(N)n2)cc1` had a half-life of 3.42 h. For the same molecule, the Activity is reported as 77% in [11] and 23.7% in [30]. Further, the Tmax in [4] is 0.5 h. Besides, the area under the curve AUC(0-t) in data set [7] was 4390 ng·h/mL. The same molecule returned a Cmax in data set [8] of 5.16 µM. Besides, the Efficacy in [29] is reported as 18%. In data set [10], this molecule showed an area under the curve AUC(0-inf) of 5680 ng·h/mL.
In turn, `COc1ccc(-c2cc(=O)[nH]c(N)n2)cc1` showed a half-life in [1] of 6.59 h. The Tmax in data set [4] was 0.25 h. This molecule returned an AUC(0-t) in [7] of 4080 ng·h/mL. The molecule also showed a peak concentration (Cmax) in [8] of 23.5 µM. Also, in data set [10], the AUC(0-inf) came out at 4110 ng·h/mL.
Consider `CC(C)COc1ccc(-c2cc(=O)[nH]c(N)n2)cc1C(N)=O`, for which the 50% inhibitory concentration (IC50) in [14] turned out to be 1920 nM.
As for `CC(C)COc1ccc(-c2cc(=O)[nH]c(N)n2)cc1OC(F)(F)F`, the IC50 in data set [14] was greater than 20000 nM.
On the same count and under the same terms, with `Nc1nc(-c2ccc(O)cc2)cc(=O)[nH]1` the figure was greater than 30000 nM.
`CC(C)COc1ccc(-c2cc(O)nc(N)n2)cc1[N+](=O)[O-]`: in [2], the half-life was 12.2 h. The AUC(0-t) in data set [3] turned out to be 14000 ng·h/mL. Besides, the Activity was determined as 133% in [11] and 93% in data set [30]. In data set [5], this molecule returned a Cmax of 9.59 µM. Besides, the area under the curve AUC(0-inf) in data set [6] was 17600 ng·h/mL. Besides, the Tmax in data set [9] amounted to 2 h. In [14], this molecule returned an IC50 of 140 nM.
For the molecule `Nc1nc(O)cc(-c2ccc(OCCCO)cc2)n1`, the IC50 in data set [14] was found to be 9240 nM.
